Reference: ChEMBL document CHEMBL4616653, “Naphthacemycins from a Streptomyces sp. as Protein-Tyrosine Phosphatase Inhibitors” (J Nat Prod, 2020)

Each compound was assayed against T1, Tyrosine-protein phosphatase non-receptor type 1 (Homo sapiens, UniProt P18031) (assay: Inhibition of recombinant human PTP1B expressed in Escherichia coli using pNPP as substrate preincubated for 15 mins followed by substrate addition and measured after 60 mins).
T1 sequence (P18031 whole entry): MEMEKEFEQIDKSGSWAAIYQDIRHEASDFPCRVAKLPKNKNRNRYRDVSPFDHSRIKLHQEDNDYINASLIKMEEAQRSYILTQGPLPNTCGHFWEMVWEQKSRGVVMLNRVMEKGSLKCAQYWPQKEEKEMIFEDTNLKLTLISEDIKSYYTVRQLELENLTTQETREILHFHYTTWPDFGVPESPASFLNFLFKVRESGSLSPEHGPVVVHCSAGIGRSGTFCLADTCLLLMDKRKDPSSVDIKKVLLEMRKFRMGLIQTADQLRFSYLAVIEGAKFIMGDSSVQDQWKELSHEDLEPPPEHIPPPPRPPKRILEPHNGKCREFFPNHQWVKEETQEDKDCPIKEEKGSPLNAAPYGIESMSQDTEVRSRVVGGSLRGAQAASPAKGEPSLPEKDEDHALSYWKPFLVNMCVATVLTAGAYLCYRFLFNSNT

| IC50 [µM] | SMILES |
| --- | --- |
| 2.7 | COc1cc(O)c(Cl)c(C)c1-c1cc(O)cc2cc3c(c(O)c12)C(=O)c1c(cc(O)c(Cl)c1O)C3(C)C |
| 8.27 | COc1cc(O)c(Cl)c(C)c1-c1cc(O)c(Cl)c2cc3c(c(O)c12)C(=O)c1c(cc(O)c(Cl)c1O)C3(C)C |
| 3.38 | COc1cc(O)c(Cl)c(C)c1-c1cc(O)cc2cc3c(c(O)c12)C(=O)c1c(O)cc(O)cc1C3(C)C |
| 7.69 | COc1cc(O)cc(C)c1-c1cc(O)cc2cc3c(c(O)c12)C(=O)c1c(cc(O)c(Cl)c1O)C3(C)C |

The next lines start with the compound.

| SMILES | IC50 [µM] |
| --- | --- |
| COc1cc(O)c(Cl)c(C)c1-c1cc(O)c(Cl)c2cc3c(c(O)c12)C(=O)c1c(O)c(Cl)c(O)c(Cl)c1C3(C)C | 2.81 |
| COc1cc(O)c(Cl)c(C)c1-c1cc(O)c(Br)c2cc3c(c(O)c12)C(=O)c1c(O)cc(O)cc1C3(C)C | 2.62 |
| COc1cc(O)c(Cl)c(C)c1-c1cc(O)cc2cc3c(c(O)c12)C(=O)c1c(O)c(Cl)c(O)c(Cl)c1C3(C)C | 2.11 |
| COc1c(Cl)c(O)c(Cl)c(C)c1-c1cc(O)c(Cl)c2cc3c(c(O)c12)C(=O)c1c(O)c(Cl)c(O)c(Cl)c1C3(C)C | 0.34 |
